Reference: patent publication US20190382396A1, “SALTS OF BICYCLO[1.1.1]PENTANE INHIBITORS OF DUAL LEUCINE ZIPPER (DLK) KINASE FOR THE TREATMENT OF DISEASE” (Board of Regents, The University of Texas System, priority 2018, published 2019)
≈ marks a conversion by molar mass, not a printed value. Where two headings read alike, the source gives them in different places.

How the values were obtained:
Format in all cases: physicochemical
[1] = Solubility of the Example 1 compound in organic solvents; details: thermodynamic from solid; for solubility at 2 h: 25 °C, RT; for solubility: 50° C.
Experimental: Solubility of the Example 1 compound in various organic solvents was determined by the following procedure. […] The mixture was stirred at 800 rpm at 25° C. for 2 hr. If the compound was not dissolved completely by this time, the temperature was then raised to 50° C. and stirring at 800 rpm was continued overnight. If a solid precipitate was present, the solid precipitate was then removed by centrifugation (14,000 RPM, 5 min) and dried under vacuum at 30° C. (Method I). If a solid precipitate was not present, the solvent was removed by evaporation under vacuum at 30° C. (Method II). In either case, the resulting material was evaluated by XRPD.

[2] = Dynamic vapor sorption (DVS), hygroscopicity
Experimental: Dynamic vapor sorption (“DVS”) was performed at 25° C., using approx 10-15 mg of sample and N2 gas at a flow rate of 200 mL/min, dm/dt=0.01% min, minimum dm/dt stability duration of 10 min, max equilibration time of 180 min, drying at 0% RH for 120 min, scanning from 0% RH to 90% RH to 0% RH with a step size of 10% RH.
Total cycling time varied, but in all cases was about 200-250 min.

[3] = Solubility in physiologically relevant solutions (SGF, FaSSIF, FeSSIF); details: 25±0.5° C.; for solubility at 24 h: 25 °C, thermodynamic from solid
Experimental: Solubility of the free base 1 and the selected salts 8, 9, 10, and 11 in physiologically relevant solutions were examined. For each material, aliquots were added to 2 ml vials containing 500 uL of either SGF, FaSSIF, or FeSSIF, which were then sealed. The mixtures were kept shaking by thermomixer at 700 rpm, 25±0.5° C. for 24 h to facilitate the dissolution and then centrifuged by 96-well plates at 3000 rpm for 2 min. The filter liquors were diluted with diluents (ACN/water, 50/50) and analyzed by HPLC.

[4] = Stability (50° C., 40° C./75% RH, light; 1 week); details: for XRPD change? / purity: bulk, 1 week
Experimental: The stability of the free base 1 and the selected salts 8, 9, 10, and 11 was evaluated. For each material, aliquots were set up at each of conditions (50° C., 40° C./75% RH, light) at given time points (initial and 1 week). PXRD diffractograms of the hydrogen fumarate salt 11 is shown in FIG. 17, with trace (a) showing the initial salt, trace (b) showing the salt after light treatment, trace (c) showing the salt after storage at 40° C. and 75% relative humidity for 1 week, and (d) showing the salt after storage at 50° C. for 1 week.

[5] = Thermogravimetric analysis / DSC weight loss; details: <120° C.
Experimental: Differential scanning calorimetry (“DSC”) was performed with a TA Q2000 instrument, using approx 1 mg of sample in a crimped Al pan, heating from room temperature to 300° C. at a rate of 10° C./min.
Thermogravimetric analysis (“TGA”) was performed with a TA Q5000 instrument, using approx 2-5 mg of sample in an open Pt pan, heating from room temperature to 300° C. at a rate of 10° C./min.

[6] = aqueous with cosolvent or surfactant or cyclodextrin, 1/1 (v/v) Acetone/H2O
[7] = aqueous with cosolvent or surfactant or cyclodextrin, 1/1 (v/v) EtOH/H2O
[8] = organic solvent or mixture, ACN
[9] = organic solvent or mixture, EtOH
[10] = organic solvent or mixture, Heptane
[11] = organic solvent or mixture, MTBE
[12] = organic solvent or mixture, Toluene

solubility at 2 h [1, 6]: < 50 mg/mL | solubility at 2 h [1, 7]: < 50 mg/mL | solubility at 2 h [1, 8]: < 50 mg/mL | solubility at 2 h ([1]; organic solvent or mixture, Acetone): > 50 mg/mL | solubility at 2 h ([1]; organic solvent or mixture, DCM): > 50 mg/mL | solubility at 2 h ([1]; organic solvent or mixture, DMF): > 50 mg/mL | solubility at 2 h ([1]; organic solvent or mixture, DMSO): > 50 mg/mL | solubility at 2 h ([1]; organic solvent or mixture, Dioxane): > 50 mg/mL | solubility at 2 h ([1]; organic solvent or mixture, EtOAc): > 50 mg/mL | solubility at 2 h [1, 9]: < 50 mg/mL | solubility at 2 h [1, 10]: < 50 mg/mL | solubility at 2 h ([1]; organic solvent or mixture, IPA): > 50 mg/mL | solubility at 2 h ([1]; organic solvent or mixture, MEK): > 50 mg/mL | solubility at 2 h [1, 11]: < 50 mg/mL | solubility at 2 h ([1]; organic solvent or mixture, MeOH): > 50 mg/mL | solubility at 2 h ([1]; organic solvent or mixture, THF): > 50 mg/mL | solubility at 2 h [1, 12]: < 50 mg/mL | solubility [1, 6]: < 50 mg/mL | solubility [1, 7]: < 50 mg/mL | solubility [1, 8]: > 50 mg/mL | solubility [1, 9]: > 50 mg/mL | solubility [1, 10]: < 50 mg/mL | solubility [1, 11]: < 50 mg/mL | solubility [1, 12]: < 50 mg/mL | solubility at 2 h ([1]; water, H2O): < 50 mg/mL | solubility ([1]; water, H2O): < 50 mg/mL | Hygroscopicity (0-40% RH) ([2]; DVS, 25° C., 0-40% RH): 0.11% | Hygroscopicity (0-90% RH) ([2]; DVS, 25° C., 0-90% RH): 2.44% | Hygroscopicity; form change ([2]; form change after DVS): no change | solubility at 24 h ([3]; simulated gastric fluid, SGF, read-out: Solubility SGF Conc): 4.56 mg/mL (≈ 10.4 mM) | solubility at 24 h ([3]; FaSSIF, read-out: Solubility FaSSIF Conc): 0.0713 mg/mL (≈ 0.163 mM) | solubility at 24 h ([3]; FeSSIF, read-out: Solubility FeSSIF Conc): 0.473 mg/mL (≈ 1.08 mM) | FaSSIF pH after 24 h ([3]; FaSSIF): 6.48 | FeSSIF pH after 24 h ([3]; FeSSIF): 5.00 | SGF pH after 24 h ([3]; SGF): 3.83 | XRPD change? ([4]; 40° C., 75% RH): yes | purity ([4]; 40° C., 75% RH): 99.66% | XRPD change? ([4]; 50° C.): yes | purity ([4]; 50° C.): 99.41% | initial purity ([4]; initial (before storage)): 99.59% | XRPD change? ([4]; light): yes (1) | purity ([4]; light): 96.61% | weight loss (TGA, %) [5]: 0.29% (<120° C.)
SMILES: CC(C)c1nc(-c2cnc(N)c(OC(F)(F)F)c2)cn1C12CC(N3CCOCC3)(C1)C2 [Example 1, 5-(2-isopropyl-1-(3-morpholinobicyclo[1.1.1]pentan-1-yl)-1H-imidazol-4-yl)-3-(trifluoromethoxy)pyridin-2-amine]
